Data set [1] concerns Leishmania donovani. Briefly: Antileishmanial activity against promastigote form of wild-type Leishmania donovani MHOM/80/IN/Dd8 assessed as inhibition of parasite growth incubated for 48 hrs by MTT assay. The conditions noted are these: MHOM/80/IN/Dd8, 48 h. In kind it is functional, organism-based. (In general: Tetrazolium assays rely on reduction of a dye to a coloured formazan, in cell work by metabolically active cells.)

Data set [2] concerns Leishmania amazonensis. Briefly: Antileishmanial activity against promastigote form of Leishmania amazonensis MHOM/BR/77/LTB0016 incubated for 24 hrs by MTT assay. In kind it is functional, organism-based. The conditions noted are these: MHOM/BR/77/LTB0016, 24 h.
The next data set concerns Leishmania mexicana. Kind of data set: Inhibition of recombinant Leishmania mexicana CPB2.8 delta CTE at 20 uM.
Data set [3] has as its system Leishmania major. Kind of data set: Antileishmanial activity against Leishmania major axenic amastigotes assessed as parasite growth inhibition by Alamar blue assay. In kind it is functional, organism-based. Background: The colour change of resazurin is a common sign of viable cells or microbes.
The next data set relates to U-937. Kind of data set: Cytotoxicity against human U-937 cells assessed as reduction in cell viability measured after 72 hrs by MTT assay. In kind it is functional. The conditions noted are these: read-out: LC50 (the source's name).
Data set [4] relates to Leishmania panamensis. Briefly: Antileishmanial activity against Leishmania panamensis MHOM/CO/87/UA140-EGFP intracellular amastigotes infected in U-937 cells assessed as parasite growth inhibition measured after 72 hrs by flow cytometry analysis. In kind it is functional, organism-based. The conditions noted are these: U-937, 72 h.
The subject of data set [5] is Leishmania amazonensis. Kind of data set: Antileishmanial activity against promastigote form of Leishmania amazonensis (MHOM/BR/75/Josefa) assessed as inhibition of parasite growth measured after 72 hrs by Neubauer counting chamber based analysis. In kind it is functional, organism-based.
The test system of data set [6] is Leishmania infantum. Briefly: Antileishmanial activity against promastigote form of Leishmania infantum BH 46 assessed as parasite growth inhibition measured after 48 hrs by Celltiter-Glo assay. In kind it is functional, organism-based. The conditions noted are these: BH 46, 48 h. Background: In ATP-based viability assays light output follows the ATP content of the culture.

Data set [7] can be described thus: Cytotoxicity against BALB/c mouse peritoneal macrophages assessed as reduction in cell viability measured after 48 hrs by luminescence based CellTiter-Glo assay. In kind it is toxicity, Peritoneal macrophage.
A short description of data set [8]: Cytotoxicity against mouse J774.A1 cells assessed as reduction in cell viability incubated for 48 hrs by MTT assay. In kind it is toxicity, cell-based.
For data set [9], the system named is Leishmania panamensis. Kind of data set: Antileishmanial activity against Leishmania panamensis MHOM/CO/87/UA140pIR-GFP intracellular amastigotes infected in human U-937 cells assessed as parasite growth inhibition measured after 72 hrs by flow cytometry analysis. The conditions noted are these: U-937, 72 h. In kind it is functional, organism-based.
Data set [10] is described as follows: Selectivity index, ratio of CC50 for cytotoxicity against human THP1 cells to IC50 for antileishmanial activity against promastigote form of Leishmania donovani. In kind it is toxicity, cell-based. The conditions noted are these: read-out: Ratio CC50/IC50.
The test system of data set [11] is Leishmania donovani. Briefly: Antileishmanial activity against promastigote form of Leishmania donovani assessed as inhibition of promastigote growth incubated for 48 hrs by Alamar blue assay. In kind it is functional, organism-based.
Data set [12] relates to Leishmania amazonensis. Briefly: Antileishmanial activity against promastigote form of Leishmania amazonensis (MHOM/BR/71973/M2269) assessed as parasite growth inhibition measured after 72 hrs by Neubauer counting chamber based analysis. In kind it is functional, organism-based. The conditions noted are these: MHOM/BR/71973/M2269, 72 h.
The subject of data set [13] is Leishmania amazonensis. Kind of data set: Antileishmanial activity against Leishmania amazonensis (MHOM/BR/71973/M2269) intracellular amastigotes infected in mouse peritoneal macrophages assessed as parasite growth inhibition incubated for 24 hrs by Giemsa staining based light microscopy analysis. In kind it is functional, organism-based. The conditions noted are these: MHOM/BR/71973/M2269, Peritoneal macrophage.

For data set [14], the system named is Leishmania major. Briefly: Antileishmanial activity against Leishmania major JISH118 promastigote infected in human THP-1 cells assessed as parasite growth inhibition measured after 48 hrs by Giemsa staining based analysis. The conditions noted are these: JISH118, THP-1, 48 h. In kind it is functional, organism-based.
For a further data set, the system named is Leishmania braziliensis. Kind of data set: Antileishmanial activity against promastigote form of Leishmania braziliensis MHOM/BR/75/M2904 promastigotes assessed as parasite growth inhibition incubated for 48 hrs by resazurin assay. In kind it is functional, organism-based. The conditions noted are these: MHOM/BR/75/M2904, 48 h.
Data set [15] concerns Leishmania infantum. Kind of data set: Antileishmanial activity against Leishmania infantum MHOM/MA/67/ITMAP263 intracellular amastigotes infected in primary peritoneal mouse macrophages assessed as inhibition of parasite growth by cell based assay. In kind it is functional, organism-based. The conditions noted are these: MHOM/MA/67/ITMAP263, Peritoneal macrophage.
In data set [16] the test system is Leishmania infantum. Kind of data set: Antileishmanial activity against promastigote form of Leishmania infantum MHOM/BR/70/BH46 promastigote assessed as parasite growth inhibition incubated for 72 hrs by Neubauer chamber analysis. In kind it is functional, organism-based. The conditions noted are these: MHOM/BR/70/BH46, 72 h.
In data set [17] the test system is Leishmania donovani. Kind of data set: Antileishmanial activity against promastigote form of Leishmania donovani MHOM/IN/83/AG83 assessed as inhibition of promastigote growth incubated for 48 hrs by MTT reduction assay. The conditions noted are these: MHOM/IN/83/AG83, 48 h. In kind it is functional, organism-based.
Data set [18] has as its system Leishmania donovani. Kind of data set: Antileishmanial activity against Leishmania donovani MHOM/IN/83/AG83 intracellular amastigotes infected in mouse RAW264.7 cells assessed as parasite growth inhibition incubated for 48 hrs by Giemsa staining based microscopic analysis. In kind it is functional, organism-based. The conditions noted are these: MHOM/IN/83/AG83, RAW264.7, 48 h.

The subject of the next data set is Trypanosoma cruzi. Briefly: Antitrypanosomal activity against Trypanosoma cruzi Tulahuen intracellular amastigotes transfected with beta-galactosidase infected in human U-937 cells assessed as viability of intracellular amastigotes measured after 72 hrs by spectrophotometry. In kind it is functional, organism-based. The conditions noted are these: U-937, 72 h.

Structures are written as SMILES. Converted amounts (≈) assume the structure as drawn.

The term IC50 denotes the midpoint of a concentration-inhibition curve. Broadly, the inhibition is the change of the read-out against control, counted positive when it falls. A word on the EC50: it is the concentration at which the effect is half-maximal.

For the molecule `CN(C)CCCn1cc(/C=C/C(=O)c2ccc(Cl)cc2)c2ccccc21`, in the data set on Leishmania donovani [1], the IC50 was found to be 21.5 µM.
Molecule `N=C(N)c1ccc(OCCCCCOc2ccc(C(=N)N)cc2)cc1` [PENTAMIDINE] came in with a half-inhibitory concentration (IC50) in the data set with Leishmania amazonensis [2] of 12.3 µM.
Take `Cc1cc(C)cc(S(=O)(=O)n2c(SCC(=O)Nc3ccccc3)nc3ccccc32)c1`: the inhibition with Leishmania mexicana was determined as 97%.
For `COc1ccc(-c2nn(-c3ccccc3)cc2/C=C/C(=O)c2ccc([N+](=O)[O-])cc2)cc1`, in the data set on Leishmania major [3], the IC50 worked out at 2.3 µM.
Turning to `O=C1C=C(c2ccc(F)cc2)S(=O)(=O)c2ccccc21`, the CC50 in the data set on U-937 was 694 µM. The EC50 in the data set with Leishmania panamensis [4] was 6.72 µM.
Regarding `CC1=CC[C@@H](C(C)(C)NC(=S)N/N=C/c2cccc([N+](=O)[O-])c2)CC1`, the IC50 with Leishmania amazonensis [5] was 2.4 µM.
For the molecule `Clc1ccc(COc2ccc(-c3nc4ccccc4o3)cc2)c(Cl)c1`, the half-inhibitory concentration (IC50) in the data set on Leishmania donovani [1] was found to be 57 µM.
`C/C(=N\Nc1nc(-c2ccc(Br)cc2)cs1)c1ccccn1`: in the data set with Leishmania infantum [6], the IC50 came out at 3.12 µM. Besides, the CC50 at 48 h in [7] turned out to be 2.95 µM.
As to `O=C1c2ccccc2C(=O)N1CCn1cc(-c2ccccc2)nn1`, the CC50 at 48 h in [8] is above 500 µM.
As to `O=c1ccoc2cc(OCCCCCCCCCOc3cccc4cccnc34)ccc12`, in the data set with Leishmania panamensis [9], the EC50 came out at 6.11 µg/mL.
Regarding `Cc1cc(N2C(=O)C(Cl)=C(Cl)C2=O)ccc1[N+](=O)[O-]`, in [10], the selectivity ratio was above 781. The IC50 in the data set on Leishmania donovani [11] is below 0.0128 µg/mL.
Turning to `CC(C)COc1ccc2c(-c3ccccc3)cc(=O)oc2c1`, the results for the IC50 in the data set on Leishmania amazonensis [12] and with Leishmania amazonensis [13] were 21.4 µM and 58.1 µM, respectively.
Take `Cc1cccc(Nc2nnc(-c3ccc(C(c4c[nH]c5ccccc45)c4c[nH]c5ccccc45)cc3)s2)c1`: in the data set on Leishmania major [14], the 50% inhibitory concentration (IC50) came to 0.7 µM.
With `O=C1C=C(c2ccc(C(F)(F)F)cc2)S(=O)(=O)c2ccc(F)cc21`, the CC50 in the data set with U-937 was found to be 561 µM. The EC50 in the data set with Leishmania panamensis [4] worked out at 3.24 µM.
Take `CC(C)=CC1=C(OC(=O)CCc2cn(-c3ccc(C)cc3)nn2)C(=O)c2ccccc2C1=O`: the IC50 with Leishmania braziliensis is 27.1 µM.
Regarding `CCCCCCCCCCCCCCCCOP(=O)([O-])OCC[N+](C)(C)C` [MILTEFOSINE], the figures for the IC50 in the data set with Leishmania infantum [15] and in the data set with Leishmania donovani [1] were 4.5 µM and 24.2 µM, respectively.
Take `CC(C)=CCC1=C(OC(=O)CCc2cn(-c3ccc(C)cc3)nn2)C(=O)c2ccccc2C1=O`: the IC50 in the data set on Leishmania braziliensis was determined as 15.9 µM.
Regarding `CCc1ccc(NC(=S)N/N=C/c2c[nH]c3c(C)cc(Br)cc23)cc1`, in the data set with Leishmania infantum [16], the IC50 came out at 4.36 µM.
As for `CN(C)CCCn1cc(/C=C/C(=O)c2ccc(I)cc2)c2ccccc21`, the IC50 in the data set with Leishmania donovani [1] came to 24.2 µM.
On to `O=c1ccoc2cc(OCCCCOc3cccc4ccccc34)ccc12`, for which the EC50 with Leishmania panamensis [9] is 6.11 µg/mL.
Regarding `COc1ccc(-c2nn(-c3ccccc3)cc2/C=N/N=C/c2c(C)nn(-c3ccccc3)c2Cl)cc1`, the IC50 in the data set with Leishmania major [3] worked out at 1.45 µM.
For `COc1cc(-c2nnc(/C=C/c3cn(-c4ccccc4)nc3-c3ccccc3)o2)cc(OC)c1OC`, the IC50 in the data set with Leishmania donovani [17] is 33.3 µg/mL (≈ 69.3 µM); with Leishmania donovani [18], 44.2 µg/mL (≈ 92 µM).
For the molecule `S=C(N/N=C/c1c[nH]c2c(Br)cc(Br)cc12)Nc1ccccc1`, the IC50 in the data set on Leishmania infantum [16] came to 5.6 µM.
In the case of `CCCCC(CCCCCCC[n+]1ccn(C)c1)Oc1ccc(C(=O)/C=C/c2ccco2)cc1` (configuration not stated), the EC50 in the data set with Trypanosoma cruzi came to 0.72 µM; with Leishmania panamensis [9] it was 2.12 µM.

The record behind these values is ChEMBL document CHEMBL5096192, “Recent advancements in anti-leishmanial research: Synthetic strategies and structural activity relationships” (Eur J Med Chem, 2021).
